Assay results: PubChem BioAssay AID1963425 (Molecular Pharmacology Branch, DTP, NCI, 2024)

System: 323965-272-R-J2-PDC complex spheroid growth, % test/control
Test: Anticancer human tumor 323965-272-R-J2-PDC patient-derived pancreatic carcinoma cell line growth inhibition [Asc]
Details: for IC50: curve of first compound; for viability, T/C: stronger effect = lower value
In short: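 Concentration series start at each agent's clinical Cmax, or at 10 microM when none is established, and drop in half-log steps; agents are applied alone or together to complex spheroids built with HUVEC and hMSC.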

[1] = second compound 0.00316 µM, first compound 0.00316 µM
[2] = second compound 0.00316 µM, first compound 0.01 µM
[3] = second compound 0.00316 µM, first compound 0.0316 µM
[4] = second compound 0.00316 µM, first compound 0.1 µM
[5] = second compound 0.01 µM, first compound 0.00316 µM
[6] = second compound 0.01 µM, first compound 0.01 µM
[7] = second compound 0.01 µM, first compound 0.0316 µM
[8] = second compound 0.01 µM, first compound 0.1 µM
[9] = second compound 0.0316 µM, first compound 0.00316 µM
[10] = second compound 0.0316 µM, first compound 0.01 µM
[11] = second compound 0.0316 µM, first compound 0.0316 µM
[12] = second compound 0.0316 µM, first compound 0.1 µM
[13] = second compound 0.1 µM, first compound 0.00316 µM
[14] = second compound 0.1 µM, first compound 0.01 µM
[15] = second compound 0.1 µM, first compound 0.0316 µM
[16] = second compound 0.1 µM, first compound 0.1 µM
[17] = second compound 0.316 µM, first compound 0.00316 µM
[18] = second compound 0.316 µM, first compound 0.01 µM
[19] = second compound 0.316 µM, first compound 0.0316 µM
[20] = second compound 0.316 µM, first compound 0.1 µM
[21] = second compound 1 µM, first compound 0.00316 µM
[22] = second compound 1 µM, first compound 0.01 µM
[23] = second compound 1 µM, first compound 0.0316 µM
[24] = second compound 1 µM, first compound 0.1 µM
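Note: compound exposure lasted 7 days starting three days after spheroid seeding.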
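Throughout, for viability, T/C: 100% = DMSO vehicle control wells with viability set relative to vehicle.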

COc1c(OCCCN2CCOCC2)ccc2c3n(c(=NC(=O)c4cnc(N)nc4)nc12)CCN3 + CNC(C)C(=O)NC1CN(S(=O)(=O)c2cccc(S(=O)(=O)N3CCC4CCC(C(=O)NC(c5ccccc5)c5ccccc5)N4C(=O)C(NC(=O)C(C)NC)C3)c2)CCC2CCC(C(=O)NC(c3ccccc3)c3ccccc3)N2C1=O
IC50 (second compound 0.00316 µM): 0.129 µM | IC50 (second compound 0.01 µM): 0.0992 µM | IC50 (second compound 0.0316 µM): 0.0926 µM | IC50 (second compound 0.1 µM): 0.0784 µM | IC50 (second compound 0.316 µM): 0.102 µM | IC50 (second compound 1 µM): 0.0705 µM | viability, T/C [1]: 97.2% | viability, T/C [2]: 81.3% | viability, T/C [3]: 69.5% | viability, T/C [4]: 54.6% | viability, T/C (second compound 0.00316 µM, first compound 0.316 µM): 36.9% | viability, T/C (second compound 0.00316 µM, first compound 1 µM): 32.4% | viability, T/C [5]: 91.6% | viability, T/C [6]: 88.9% | viability, T/C [7]: 60.1% | viability, T/C [8]: 52.8% | viability, T/C (second compound 0.01 µM, first compound 0.316 µM): 36.8% | viability, T/C (second compound 0.01 µM, first compound 1 µM): 26% | viability, T/C [9]: 94.7% | viability, T/C [10]: 84.1% | viability, T/C [11]: 66.4% | viability, T/C [12]: 48.6% | viability, T/C (second compound 0.0316 µM, first compound 0.316 µM): 37.6% | viability, T/C (second compound 0.0316 µM, first compound 1 µM): 31.3% | viability, T/C [13]: 89.5% | viability, T/C [14]: 80.1% | viability, T/C [15]: 62.9% | viability, T/C [16]: 49.3% | viability, T/C (second compound 0.1 µM, first compound 0.316 µM): 29.9% | viability, T/C (second compound 0.1 µM, first compound 1 µM): 29.4% | viability, T/C [17]: 84.9% | viability, T/C [18]: 85.4% | viability, T/C [19]: 73.3% | viability, T/C [20]: 49.7% | viability, T/C (second compound 0.316 µM, first compound 0.316 µM): 36.8% | viability, T/C (second compound 0.316 µM, first compound 1 µM): 30.3% | viability, T/C [21]: 85.2% | viability, T/C [22]: 76.3% | viability, T/C [23]: 60.5% | viability, T/C [24]: 43.4% | viability, T/C (second compound 1 µM, first compound 0.316 µM): 35.8% | viability, T/C (second compound 1 µM, first compound 1 µM): 24.3%

NC(=O)C(=Cn1cnc(-c2cc(C(F)(F)F)cc(C(F)(F)F)c2)n1)c1cncnc1 + CNC(C)C(=O)NC1CN(S(=O)(=O)c2cccc(S(=O)(=O)N3CCC4CCC(C(=O)NC(c5ccccc5)c5ccccc5)N4C(=O)C(NC(=O)C(C)NC)C3)c2)CCC2CCC(C(=O)NC(c3ccccc3)c3ccccc3)N2C1=O
IC50 (second compound 0.00316 µM): > 0.3 µM | IC50 (second compound 0.01 µM): > 0.3 µM | IC50 (second compound 0.0316 µM): > 0.3 µM | IC50 (second compound 0.1 µM): > 0.3 µM | IC50 (second compound 0.316 µM): > 0.3 µM | IC50 (second compound 1 µM): > 0.3 µM | viability, T/C (second compound 0.00316 µM, first compound 0.000949 µM): 121% | viability, T/C (second compound 0.00316 µM, first compound 0.003 µM): 120% | viability, T/C (second compound 0.00316 µM, first compound 0.00949 µM): 97.1% | viability, T/C (second compound 0.00316 µM, first compound 0.03 µM): 99.6% | viability, T/C (second compound 0.00316 µM, first compound 0.0949 µM): 70.7% | viability, T/C (second compound 0.00316 µM, first compound 0.3 µM): 76.2% | viability, T/C (second compound 0.01 µM, first compound 0.000949 µM): 103% | viability, T/C (second compound 0.01 µM, first compound 0.003 µM): 108% | viability, T/C (second compound 0.01 µM, first compound 0.00949 µM): 109% | viability, T/C (second compound 0.01 µM, first compound 0.03 µM): 91.1% | viability, T/C (second compound 0.01 µM, first compound 0.0949 µM): 78.8% | viability, T/C (second compound 0.01 µM, first compound 0.3 µM): 62.5% | viability, T/C (second compound 0.0316 µM, first compound 0.000949 µM): 103% | viability, T/C (second compound 0.0316 µM, first compound 0.003 µM): 109% | viability, T/C (second compound 0.0316 µM, first compound 0.00949 µM): 108% | viability, T/C (second compound 0.0316 µM, first compound 0.03 µM): 86.7% | viability, T/C (second compound 0.0316 µM, first compound 0.0949 µM): 74.5% | viability, T/C (second compound 0.0316 µM, first compound 0.3 µM): 61.7% | viability, T/C (second compound 0.1 µM, first compound 0.000949 µM): 105% | viability, T/C (second compound 0.1 µM, first compound 0.003 µM): 104% | viability, T/C (second compound 0.1 µM, first compound 0.00949 µM): 104% | viability, T/C (second compound 0.1 µM, first compound 0.03 µM): 87% | viability, T/C (second compound 0.1 µM, first compound 0.0949 µM): 80.4% | viability, T/C (second compound 0.1 µM, first compound 0.3 µM): 62.5% | viability, T/C (second compound 0.316 µM, first compound 0.000949 µM): 107% | viability, T/C (second compound 0.316 µM, first compound 0.003 µM): 111% | viability, T/C (second compound 0.316 µM, first compound 0.00949 µM): 96.3% | viability, T/C (second compound 0.316 µM, first compound 0.03 µM): 93.6% | viability, T/C (second compound 0.316 µM, first compound 0.0949 µM): 77.1% | viability, T/C (second compound 0.316 µM, first compound 0.3 µM): 62.4% | viability, T/C (second compound 1 µM, first compound 0.000949 µM): 101% | viability, T/C (second compound 1 µM, first compound 0.003 µM): 104% | viability, T/C (second compound 1 µM, first compound 0.00949 µM): 77.3% | viability, T/C (second compound 1 µM, first compound 0.03 µM): 83.7% | viability, T/C (second compound 1 µM, first compound 0.0949 µM): 78.4% | viability, T/C (second compound 1 µM, first compound 0.3 µM): 71%

NC1CCC(NC2CC2c2ccccc2)CC1 (stereo unspecified) + CNC(C)C(=O)NC1CN(S(=O)(=O)c2cccc(S(=O)(=O)N3CCC4CCC(C(=O)NC(c5ccccc5)c5ccccc5)N4C(=O)C(NC(=O)C(C)NC)C3)c2)CCC2CCC(C(=O)NC(c3ccccc3)c3ccccc3)N2C1=O
IC50 (second compound 0.00316 µM): > 0.1 µM | IC50 (second compound 0.01 µM): > 0.1 µM | IC50 (second compound 0.0316 µM): > 0.1 µM | IC50 (second compound 0.1 µM): > 0.1 µM | IC50 (second compound 0.316 µM): > 0.1 µM | IC50 (second compound 1 µM): > 0.1 µM | viability, T/C (second compound 0.00316 µM, first compound 0.000316 µM): 96.2% | viability, T/C (second compound 0.00316 µM, first compound 0.001 µM): 91.7% | viability, T/C [1]: 104% | viability, T/C [2]: 97% | viability, T/C [3]: 97.6% | viability, T/C [4]: 94.2% | viability, T/C (second compound 0.01 µM, first compound 0.000316 µM): 97.6% | viability, T/C (second compound 0.01 µM, first compound 0.001 µM): 86.7% | viability, T/C [5]: 95.9% | viability, T/C [6]: 101% | viability, T/C [7]: 99.3% | viability, T/C [8]: 90.5% | viability, T/C (second compound 0.0316 µM, first compound 0.000316 µM): 106% | viability, T/C (second compound 0.0316 µM, first compound 0.001 µM): 94.9% | viability, T/C [9]: 91.5% | viability, T/C [10]: 99.3% | viability, T/C [11]: 97.2% | viability, T/C [12]: 97.1% | viability, T/C (second compound 0.1 µM, first compound 0.000316 µM): 95% | viability, T/C (second compound 0.1 µM, first compound 0.001 µM): 88.6% | viability, T/C [13]: 87.6% | viability, T/C [14]: 85.3% | viability, T/C [15]: 96.1% | viability, T/C [16]: 96.7% | viability, T/C (second compound 0.316 µM, first compound 0.000316 µM): 109% | viability, T/C (second compound 0.316 µM, first compound 0.001 µM): 92% | viability, T/C [17]: 88.7% | viability, T/C [18]: 97.5% | viability, T/C [19]: 95.9% | viability, T/C [20]: 91.2% | viability, T/C (second compound 1 µM, first compound 0.000316 µM): 93.5% | viability, T/C (second compound 1 µM, first compound 0.001 µM): 80.2% | viability, T/C [21]: 87% | viability, T/C [22]: 87.3% | viability, T/C [23]: 109% | viability, T/C [24]: 85.2%
